Data as given in patent publication US4876260A, “Oxathiolanes” (State of Israel, Israel Institute of Biological Research, priority 1988, dated 1989).
Several values for one entry are separate records, joined by “and”; a condition that tells them apart may be missing. Equal entries are not always repeated. Entries after “also recorded” stand apart in the source; their conditions may differ. Where two headings read alike, the source gives them in different places.

Tests used:
[1] = target: T1, M1 muscarinic receptors (3H-PZ sites, frontal cortex) (Rattus norvegicus, UniProt P08482); assay: Displacement of 3H-PZ from rat frontal cortex homogenate; type: binding; conditions: for a':c', Ki(3H-PZ):Ki(3H-CD): (g) frontal cortex ratio
T1 sequence (P08482 1-460): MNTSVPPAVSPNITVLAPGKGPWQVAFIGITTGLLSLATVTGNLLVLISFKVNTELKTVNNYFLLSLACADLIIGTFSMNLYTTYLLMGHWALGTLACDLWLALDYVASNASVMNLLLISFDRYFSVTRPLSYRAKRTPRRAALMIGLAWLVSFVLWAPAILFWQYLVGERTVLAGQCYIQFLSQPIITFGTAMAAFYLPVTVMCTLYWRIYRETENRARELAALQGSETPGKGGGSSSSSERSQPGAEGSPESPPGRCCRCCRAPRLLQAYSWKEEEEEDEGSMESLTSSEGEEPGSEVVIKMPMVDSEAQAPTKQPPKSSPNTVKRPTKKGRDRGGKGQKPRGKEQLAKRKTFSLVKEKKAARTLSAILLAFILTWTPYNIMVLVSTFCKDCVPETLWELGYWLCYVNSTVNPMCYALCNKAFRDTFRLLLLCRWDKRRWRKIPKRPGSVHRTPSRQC

[2] = target: muscarinic receptors (3H-QNB sites, frontal cortex); type: binding, rat; conditions: (b') frontal cortex
[3] = target: muscarinic receptors (3H-CD sites, frontal cortex); assay: Displacement of 3H-CD from rat frontal cortex homogenate; type: binding; conditions: (c') frontal cortex
[4] = target: T2, muscarinic receptors (3H-QNB sites, cerebellum, mainly M2) (Rattus norvegicus, UniProt P10980); assay: biochemical; type: binding; conditions: Ki(3H-QNB), (b") cerebellum
T2 sequence (P10980 1-466): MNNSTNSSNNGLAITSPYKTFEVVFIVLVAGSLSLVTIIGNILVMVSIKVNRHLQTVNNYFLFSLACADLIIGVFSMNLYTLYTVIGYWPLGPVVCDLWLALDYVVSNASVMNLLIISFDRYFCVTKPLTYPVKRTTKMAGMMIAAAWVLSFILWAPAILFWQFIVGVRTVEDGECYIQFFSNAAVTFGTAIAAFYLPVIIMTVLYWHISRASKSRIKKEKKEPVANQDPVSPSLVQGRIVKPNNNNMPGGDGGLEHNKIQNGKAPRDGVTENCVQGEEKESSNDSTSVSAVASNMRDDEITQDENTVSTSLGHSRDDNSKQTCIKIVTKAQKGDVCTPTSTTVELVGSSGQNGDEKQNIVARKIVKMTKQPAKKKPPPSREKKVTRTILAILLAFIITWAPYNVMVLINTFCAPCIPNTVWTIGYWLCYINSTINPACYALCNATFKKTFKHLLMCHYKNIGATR

[5] = test system: muscarinic receptors (3H-QNB sites, cerebellum, mainly M2); assay: biochemical; type: binding, rat; conditions: for b':b": (k) Ki(3H-QNB) frontal cortex : Ki(3H-QNB) cerebellum
[6] = test system: isolated guinea-pig ileum; assay: Contraction of isolated guinea-pig ileum preparation
Excerpt: (§1) From this Table, it appears that compounds (III) were not so effective in contracting the guinea pig ileum preparation.

[7] = test system: ACh-induced contractions of guinea-pig ileum; assay: Blocking of ACh-induced contractions of isolated guinea-pig ileum
Excerpt: as §1

mice = assay: Pharmacodynamic profile and general toxicity in mice; type: in vivo, CD-1 mice
Experimental: Male white mice of the CD-1 strain supplied by Charles River Ltd. (U.K.) were used throughout. An acclimatization period of at least three days was allowed between arrival and commencement of a particular experimental series. The animals were fed a complete commercial pelleted rodent diet without restriction during the acclimatization and study periods. Animals had free access to tap water. Body weights during testing were mostly within 20-28 g.
Test materials were prepared as aqueous solutions in physiological saline (0.9% NaCl), up to a maximum concentration of 10 mg./ml. All materials were freshly prepared on the morning prior to each dosing session. Dosages were expressed gravimetrically (mg./kg.), in terms of the materials as received.
Groups of mice (mostly n=5) received either i.v. or oral administration of the test materials at various dose levels. Dose volumes appropriate for respective dose levels selected, were determined for each animal according to body weights on the day of dosing. Any behavioral changes occurring during one to two hours after administration, as well as incidence of death up to 24 hours after dosing were recorded.

[8] = target: T3, M1 muscarinic receptors (3H-PZ sites, forebrain) (Rattus norvegicus, UniProt P08482); assay: Displacement of 3H-Pirenzepine (3H-PZ, selective M1 antagonist) from rat forebrain homogenate; type: binding
T3 sequence (P08482 1-460): T1 sequence (P08482 1-460)

[9] = target: muscarinic receptors (3H-CD sites, M1 and M2, forebrain); assay: Displacement of 3H-cis-dioxolane (3H-CD, non-selective M1 and M2 agonist) from rat forebrain homogenate; type: binding
[10] = target: muscarinic receptors (3H-QNB sites, M1 and M2, forebrain); type: binding, rat; conditions: (b) forebrain
all muscarinic receptors = conditions: cited from earlier work
[11] = (a') frontal cortex, read-out: Ki(3H-PZ)
[12] = 25 mg/kg i.v., listed as (±)-III AF122B
[13] = 100 mg/kg i.v., immed = immediately
[14] = 100 mg/kg p.o., listed as (±)-III AF122B
[15] = 200 mg/kg p.o., listed as (±)-III AF122B
[16] = 25 mg/kg i.v., listed as (±)-III AF122A
[17] = 100 mg/kg p.o., listed as (±)-III AF122A
[18] = 200 mg/kg p.o., listed as (±)-III AF122A

CC1OCC2(CN3CCC2CC3)S1 (stereo not drawn) [compound 8, 2-methylspiro(1,3-oxathiolan-4,3')quinuclidine]
a':b', Ki(3H-PZ):Ki(3H-QNB) [1]: 0.11
Ki [1, 11]: 1.66 ± 0.24 µM
a':c', Ki(3H-PZ):Ki(3H-CD) [1]: 0.7
Ki [2]: 15.3 ± 2.2 µM
Ki [3]: 2.3 µM
Ki [4]: 21.1 ± 7.6 µM
b':b" [5]: 0.73
Desensitization [6]: desensitization that was observed
Blocking of the contractions by atropine (remarks) ([6]; listed as AF122B): the contractions were only partially blocked by atropine
Contraction of guinea pig ileum (in words) ([6]; listed as AF122B): contracted the ileum muscle
Effect on ACh-induced contractions (in words) ([7]; listed as AF122B): consistently blocked ACh-induced contractions
Mortality, No. dead/total treated (mice; 10 mg/kg i.v., listed as (±)-III AF122B): 0/3
Analgesia (nonresponsiveness to tail pinch), No. affected/total treated (mice; [12]): 2/5
Convulsive seizures, No. affected/total treated (mice; [12]): 5/5
Exophthalmus, No. affected/total treated (mice; [12]): 2/5
Mortality, No. dead/total treated (mice; [12]): 3/5
Respiratory distress, No. affected/total treated (mice; [12]): 2/5
Tremors, No. affected/total treated (mice; [12]): 5/5
Convulsive seizures, No. affected/total treated (mice; 50 mg/kg i.v.): 2/2
Mortality, No. dead/total treated (mice; 50 mg/kg i.v.): 2/2
Mortality, time after drug administration (mice; 50 mg/kg i.v.): 5 s
Tremors, No. affected/total treated (mice; 50 mg/kg i.v.): 2/2
Mortality, No. dead/total treated (mice; 50 mg/kg p.o.): 0/5
Mortality, No. dead/total treated (mice; 100 mg/kg i.v.): 2/2
Mortality, time after drug administration (mice; [13]): immed
Analgesia (nonresponsiveness to tail pinch), No. affected/total treated (mice; 100 mg/kg p.o.): 4/4
Convulsive seizures, No. affected/total treated (mice; 100 mg/kg p.o.): 4/4
Vocalization, No. affected/total treated (mice; 100 mg/kg p.o.): 1/4
Mortality, No. dead/total treated (mice; [14]): 1/4
Tremors, No. affected/total treated (mice; [14]): 4/4
Mortality, time after drug administration (mice; 100 mg/kg p.o., m = minutes): 15 m
Analgesia (nonresponsiveness to tail pinch), No. affected/total treated (mice; 200 mg/kg p.o.): 4/4
Respiratory distress, No. affected/total treated (mice; 200 mg/kg p.o.): 4/4
Vocalization, No. affected/total treated (mice; 200 mg/kg p.o.): 2/4
Convulsive seizures, No. affected/total treated (mice; [15]): 4/4
Mortality, No. dead/total treated (mice; [15]): 4/4
Tremors, No. affected/total treated (mice; [15]): 4/4
Mortality, time after drug administration (mice; 200 mg/kg p.o., m = minutes): 15 m

CC1OCC2(CN3CCC2CC3)S1 (stereo not drawn) [compound 11, 2-methylspiro(1,3-oxathiolan-4,3')quinuclidine]
M1 selectivity (in words) ([8]; from Tables 2A, 2B, 2C): high M1 selectivity
Ki ([9]; Table 2B column (c'), footnote *forebrain): 0.75 µM
a':b', Ki(3H-PZ):Ki(3H-QNB) [1]: 0.09
Ki [1, 11]: 0.84 ± 0.03 µM
a':c', Ki(3H-PZ):Ki(3H-CD) [1]: 1.0
Ki [2]: 9.7 ± 2.3 µM
Ki [4]: 19.8 ± 6.1 µM
b':b" [5]: 0.49
Contraction of guinea pig ileum (in words) ([6]; listed as AF122A): did not produce any significant contractions in the concentration range within which it binds to the brain receptors
Effect on ACh-induced contractions (in words) ([7]; listed as AF122A): perturbed the ACh-induced contractions when applied in relatively high concentrations
Analgesia (nonresponsiveness to tail pinch), No. affected/total treated (mice; 10 mg/kg i.v.): 2/5
Vocalization, No. affected/total treated (mice; 10 mg/kg i.v.): 2/5
Mortality, No. dead/total treated (mice; 10 mg/kg i.v., listed as (±)-III AF122A): 0/5
Vocalization, No. affected/total treated (mice; 25 mg/kg i.v.): 3/6
Analgesia (nonresponsiveness to tail pinch), No. affected/total treated (mice; [16]): 4/5
Convulsive seizures, No. affected/total treated (mice; [16]): 1/6
Exophthalmus, No. affected/total treated (mice; [16]): 3/6
Mortality, No. dead/total treated (mice; [16]): 1/6
Respiratory distress, No. affected/total treated (mice; [16]): 4/6
Tremors, No. affected/total treated (mice; [16]): 3/6
Mortality, time after drug administration (mice; 25 mg/kg i.v., m = minutes): 1 m
Convulsive seizures, No. affected/total treated (mice; 50 mg/kg i.v.): 2/2
Mortality, No. dead/total treated (mice; 50 mg/kg i.v.): 2/2
Mortality, time after drug administration (mice; 50 mg/kg i.v.): 5 s
Mortality, No. dead/total treated (mice; 50 mg/kg p.o.): 0/5
Mortality, No. dead/total treated (mice; 100 mg/kg i.v.): 2/2
Mortality, time after drug administration (mice; [13]): immed
Mortality, No. dead/total treated (mice; [17]): 0/5
Tremors, No. affected/total treated (mice; [17]): 5/5
Mortality, time after drug administration (mice; 200 mg/kg p.o.): 30 s
Convulsive seizures, No. affected/total treated (mice; [18]): 5/5
Mortality, No. dead/total treated (mice; [18]): 5/5
Tremors, No. affected/total treated (mice; [18]): 5/5

O=C1CCCN1CC#CCN1CCCC1 [compound 1, Oxotremorine]
order of the ratios Ki(3H-PZ):Ki(3H-CD) [8]: oxotremorine >McN-A-343>compound # 3; also recorded: weakest relative affinity towards M1 binding sites
a:b, Ki(3H-PZ):Ki(3H-QNB) ([8]; (d) forebrain ratio): 0.29
order of the ratios Ki(3H-PZ):Ki(3H-QNB) ([8]; forebrain, among oxotremorine, McN-A-343, compound #3): McN-A-343 >compound #3>oxotremorine; also recorded: relatively stronger than McN-A-343 and compound #3
Ki [10]: 2.1 ± 0.3 µM
Ki ([9]; (c) forebrain, * in M × 10^-10): 0.00096 ± 0.00042 µM
a':b', Ki(3H-PZ):Ki(3H-QNB) ([1]; (f) frontal cortex ratio): 0.1
a':c', Ki(3H-PZ):Ki(3H-CD) [1]: 137.5
Ki ([1]; Ki(3H-PZ)): 0.22 ± 0.07 µM
Ki [2]: 2.2 ± 0.3 µM
Ki [3]: 0.0016 ± 0.0004 µM
Ki [4]: 0.7 µM and 1.31 µM
a:b" ([5]; (h) Ki(3H-PZ) forebrain : Ki(3H-QNB) cerebellum): 0.86
b:b" ([5]; (j) Ki(3H-QNB) forebrain : Ki(3H-QNB) cerebellum): 3.00
b':b" [5]: 1.69
order of M1 versus M2 selectivity, IC50 (FB):IC50 (CER) or IC50 (frontal cortex):IC50 (CER) ([5]; FB=forebrain, CER=cerebellum): compound #4>compound #3>oxotremorine
affinity towards all muscarinic receptors (in words) (all muscarinic receptors): greater than those of the weaker agonists McN-A-343 or compound #3
